Test results reported in ChEMBL document CHEMBL1201862, “PubChem BioAssay data set” (2004).
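Following 48 hours of exposure in 96-well plates, responses at five concentrations were used to interpolate endpoints linearly. GI50 = concentration required for 50% inhibition of growth.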 Active and inactive are the calls of the source. No stated cut-off is given here; in the data, active = GI50 up to about 1.1 µM and inactive = higher. Square brackets hold non-standard residues; d marks the D form. Peptide text beside a SMILES is read from it. * marks the point of attachment. ξ: configuration not given here. NMeY = CN[C@@H](Cc1ccc(O)cc1)C(=O)O; Cbz = O=C(OCc1ccccc1)*; ξA = CC(N)C(=O)O

Experiments:
Test in all cases: DTP human tumour cell line panel, 48 h
HL-60 = tested on: HL-60
786-0 = tested on: 786-0
SW-620 = tested on: SW-620
NCI/ADR-RES = tested on: NCI/ADR-RES
SR = tested on: SR
PC-3 = tested on: PC-3
HCC 2998 = tested on: HCC 2998
RPMI-8226 = tested on: RPMI-8226
SF-295 = tested on: SF-295
OVCAR-8 = tested on: OVCAR-8
HCT-116 = tested on: HCT-116
MDA-MB-231 = tested on: MDA-MB-231
NCI-H226 = tested on: NCI-H226
DU-145 = tested on: DU-145
SNB-75 = tested on: SNB-75
SK-MEL-5 = tested on: SK-MEL-5
OVCAR-4 = tested on: OVCAR-4
SN12C = tested on: SN12C
UACC-62 = tested on: UACC-62
NCI-H522 = tested on: NCI-H522

Structure (SMILES)	GI50 (HL-60)	GI50 (786-0)	GI50 (SW-620)	GI50 (NCI/ADR-RES)	GI50 (SR)	GI50 (PC-3)	GI50 (HCC 2998)	GI50 (RPMI-8226)	GI50 (SF-295)	GI50 (OVCAR-8)	GI50 (HCT-116)	GI50 (MDA-MB-231)	GI50 (NCI-H226)	GI50 (DU-145)	GI50 (SNB-75)	GI50 (SK-MEL-5)	GI50 (OVCAR-4)	GI50 (SN12C)	GI50 (UACC-62)	GI50 (NCI-H522)
COc1ccc(OC)c(/N=C/c2cc(OC)c(OC)c(OC)c2)c1	48.9 µM (inactive)	> 95.7 µM (inactive)	> 91.2 µM (inactive)	> 100 µM (inactive)	32.5 µM (inactive)	> 100 µM (inactive)	> 100 µM (inactive)	> 44.1 µM (inactive)	> 100 µM (inactive)	> 100 µM (inactive)	> 100 µM (inactive)	> 100 µM (inactive)	> 50.2 µM (inactive)	> 100 µM (inactive)	> 100 µM (inactive)	> 100 µM (inactive)	> 85.1 µM (inactive)	> 100 µM (inactive)	> 100 µM (inactive)	22.9 µM (inactive)
CC1=C(N2CC2)C(=O)c2nc3n(c2C1=O)CCC3OC(=O)CCl (configuration not stated)	0.206 µM (active)	0.052 µM (active)	0.0316 µM (active)	0.0249 µM (active)	0.225 µM (active)	0.0214 µM (active)	0.0395 µM (active)	0.0955 µM (active)	0.0373 µM (active)	0.0452 µM (active)	0.0418 µM (active)	1.91 µM (inactive)	0.064 µM (active)	0.021 µM (active)	0.0221 µM (active)	0.0428 µM (active)	0.0719 µM (active)	0.0573 µM (active)	0.0356 µM (active)	0.0274 µM (active)
O=C(CC(=O)N1N=C(N(c2ccccc2)c2ccccc2)CC1c1ccccc1)Nc1cccc(Cl)c1 (configuration not stated)	> 100 µM (inactive)	> 100 µM (inactive)	> 100 µM (inactive)	> 100 µM (inactive)	> 100 µM (inactive)	> 100 µM (inactive)	> 100 µM (inactive)	> 100 µM (inactive)	> 100 µM (inactive)	> 100 µM (inactive)	> 100 µM (inactive)	> 100 µM (inactive)	> 100 µM (inactive)	> 100 µM (inactive)	> 100 µM (inactive)	> 100 µM (inactive)	> 100 µM (inactive)	> 100 µM (inactive)	> 100 µM (inactive)	> 100 µM (inactive)
C(=N\C12CC3CC(CC(C3)C1)C2)/C1CCCCC1	> 100 µM (inactive)	> 100 µM (inactive)	> 100 µM (inactive)	> 100 µM (inactive)	> 100 µM (inactive)	> 100 µM (inactive)	> 100 µM (inactive)	> 100 µM (inactive)	> 100 µM (inactive)	> 100 µM (inactive)	> 100 µM (inactive)	> 100 µM (inactive)	> 100 µM (inactive)	> 100 µM (inactive)	> 100 µM (inactive)	> 100 µM (inactive)	> 100 µM (inactive)	> 100 µM (inactive)	> 100 µM (inactive)	> 100 µM (inactive)
O=C1/C(=C/c2ccc(O)cc2)CCC1CNc1ccccc1 (configuration not stated)	1.96 µM (inactive)	6.9 µM (inactive)	2.54 µM (inactive)	19 µM (inactive)	1.74 µM (inactive)	11.2 µM (inactive)	18.8 µM (inactive)	1.15 µM (inactive)	15.9 µM (inactive)	16 µM (inactive)	5.64 µM (inactive)	14.4 µM (inactive)	17.9 µM (inactive)	12.3 µM (inactive)	26.2 µM (inactive)	16.8 µM (inactive)	19.1 µM (inactive)	15 µM (inactive)	13.1 µM (inactive)	2.4 µM (inactive)
CC1OC2OC3C(OCC(O)C3O)OC(=O)[C@]34CCC(C)(C)CC3C3=CCC5[C@@]6(C)C[C@H](O)[C@H](OC7OC(CO)C(O)C(O)C7OC7OC(COC(=O)CC(C)(O)CC(=O)OC1C(O)C2O)C(O)C(O)C7O)[C@@](C)(CO)C6CC[C@@]5(C)[C@]3(C)CC4 (some centres not stated)	1.4 µM (inactive)	1.21 µM (inactive)	1.16 µM (inactive)	3.01 µM (inactive)	1.6 µM (inactive)	1.38 µM (inactive)	1.32 µM (inactive)	1.66 µM (inactive)	1.78 µM (inactive)	1.65 µM (inactive)	1.63 µM (inactive)	1.56 µM (inactive)	2.48 µM (inactive)	1.75 µM (inactive)	1.47 µM (inactive)	1.21 µM (inactive)	1.51 µM (inactive)	1.96 µM (inactive)	1.56 µM (inactive)	1.64 µM (inactive)
CCOc1ccc(NCc2cc(OC)c(OC)c(OC)c2)cc1	0.463 µM (active)	1.32 µM (inactive)	0.334 µM (active)	0.359 µM (active)	0.288 µM (active)	1.96 µM (inactive)	0.9 µM (active)	1.58 µM (inactive)	0.417 µM (active)		0.533 µM (active)	1.57 µM (inactive)	11.3 µM (inactive)	3.15 µM (inactive)	1.96 µM (inactive)	0.578 µM (active)	40.1 µM (inactive)		0.481 µM (active)	0.452 µM (active)
COc1ccc(C[C@@H](C(=O)N[C@@H](C)C(N)=O)N(C)C(=O)[C@@H]2CCCN2C(=O)[C@H](CC(C)C)NC(=O)C(C)NC(=O)OCc2ccccc2)cc1 (some centres not stated) (Cbz-[ξA]LP[NMeY](Me)A-NH2)	> 100 µM (inactive)	> 100 µM (inactive)	> 100 µM (inactive)	> 100 µM (inactive)	> 100 µM (inactive)	61.7 µM (inactive)	> 100 µM (inactive)	> 100 µM (inactive)	> 100 µM (inactive)	> 100 µM (inactive)	> 100 µM (inactive)	> 100 µM (inactive)	> 100 µM (inactive)	> 100 µM (inactive)	66.1 µM (inactive)	76.2 µM (inactive)	> 100 µM (inactive)	> 100 µM (inactive)	73.1 µM (inactive)	> 100 µM (inactive)
O=C(C/N=C(\CN(c1ccccc1)c1ccccc1)Oc1c(Cl)cc(Cl)cc1Cl)N1c2ccccc2Sc2ccccc21	47.4 µM (inactive)	55.3 µM (inactive)	65 µM (inactive)	57.9 µM (inactive)	35.2 µM (inactive)	34 µM (inactive)	36.7 µM (inactive)	62.2 µM (inactive)	> 100 µM (inactive)	35.4 µM (inactive)	34.9 µM (inactive)	> 100 µM (inactive)	24.4 µM (inactive)	> 100 µM (inactive)	22.3 µM (inactive)	21.4 µM (inactive)	88.7 µM (inactive)	47.8 µM (inactive)	4.61 µM (inactive)	28.3 µM (inactive)
CC(=O)OC1C[C@@H](C)C2(C[C@H](O)c3ccoc3)C(=O)OC[C@]13C2CCC(O)C31CO1 (some centres not stated)	> 10 µM (inactive)	> 100 µM (inactive)		> 100 µM (inactive)	> 100 µM (inactive)	> 100 µM (inactive)	> 100 µM (inactive)	> 100 µM (inactive)	> 100 µM (inactive)	> 100 µM (inactive)	> 100 µM (inactive)	> 100 µM (inactive)	> 100 µM (inactive)	> 100 µM (inactive)	> 100 µM (inactive)	> 100 µM (inactive)	> 100 µM (inactive)	> 100 µM (inactive)	> 100 µM (inactive)	> 100 µM (inactive)
